Experiment [1] in a line: microbe, parasite or virus in culture. The following applies: Mycobacterium tuberculosis, 72 h, read-out: pIC50 (converted).
Experiment [2] can be described thus: microbe, parasite or virus in culture. The settings on record: Mycobacterium tuberculosis, 96 h, read-out: pIC50 (converted).
The target in experiment [3] is Polyketide synthase Pks13 (Mycobacterium tuberculosis (strain ATCC 25618 / H37Rv), UniProt I6X8D2). Kind of experiment: Mycobacterium tuberculosis Polyketide synthase 13 Thioesterase (PKS13). Format: functional.
Polyketide synthase Pks13, sequence (I6X8D2 whole entry): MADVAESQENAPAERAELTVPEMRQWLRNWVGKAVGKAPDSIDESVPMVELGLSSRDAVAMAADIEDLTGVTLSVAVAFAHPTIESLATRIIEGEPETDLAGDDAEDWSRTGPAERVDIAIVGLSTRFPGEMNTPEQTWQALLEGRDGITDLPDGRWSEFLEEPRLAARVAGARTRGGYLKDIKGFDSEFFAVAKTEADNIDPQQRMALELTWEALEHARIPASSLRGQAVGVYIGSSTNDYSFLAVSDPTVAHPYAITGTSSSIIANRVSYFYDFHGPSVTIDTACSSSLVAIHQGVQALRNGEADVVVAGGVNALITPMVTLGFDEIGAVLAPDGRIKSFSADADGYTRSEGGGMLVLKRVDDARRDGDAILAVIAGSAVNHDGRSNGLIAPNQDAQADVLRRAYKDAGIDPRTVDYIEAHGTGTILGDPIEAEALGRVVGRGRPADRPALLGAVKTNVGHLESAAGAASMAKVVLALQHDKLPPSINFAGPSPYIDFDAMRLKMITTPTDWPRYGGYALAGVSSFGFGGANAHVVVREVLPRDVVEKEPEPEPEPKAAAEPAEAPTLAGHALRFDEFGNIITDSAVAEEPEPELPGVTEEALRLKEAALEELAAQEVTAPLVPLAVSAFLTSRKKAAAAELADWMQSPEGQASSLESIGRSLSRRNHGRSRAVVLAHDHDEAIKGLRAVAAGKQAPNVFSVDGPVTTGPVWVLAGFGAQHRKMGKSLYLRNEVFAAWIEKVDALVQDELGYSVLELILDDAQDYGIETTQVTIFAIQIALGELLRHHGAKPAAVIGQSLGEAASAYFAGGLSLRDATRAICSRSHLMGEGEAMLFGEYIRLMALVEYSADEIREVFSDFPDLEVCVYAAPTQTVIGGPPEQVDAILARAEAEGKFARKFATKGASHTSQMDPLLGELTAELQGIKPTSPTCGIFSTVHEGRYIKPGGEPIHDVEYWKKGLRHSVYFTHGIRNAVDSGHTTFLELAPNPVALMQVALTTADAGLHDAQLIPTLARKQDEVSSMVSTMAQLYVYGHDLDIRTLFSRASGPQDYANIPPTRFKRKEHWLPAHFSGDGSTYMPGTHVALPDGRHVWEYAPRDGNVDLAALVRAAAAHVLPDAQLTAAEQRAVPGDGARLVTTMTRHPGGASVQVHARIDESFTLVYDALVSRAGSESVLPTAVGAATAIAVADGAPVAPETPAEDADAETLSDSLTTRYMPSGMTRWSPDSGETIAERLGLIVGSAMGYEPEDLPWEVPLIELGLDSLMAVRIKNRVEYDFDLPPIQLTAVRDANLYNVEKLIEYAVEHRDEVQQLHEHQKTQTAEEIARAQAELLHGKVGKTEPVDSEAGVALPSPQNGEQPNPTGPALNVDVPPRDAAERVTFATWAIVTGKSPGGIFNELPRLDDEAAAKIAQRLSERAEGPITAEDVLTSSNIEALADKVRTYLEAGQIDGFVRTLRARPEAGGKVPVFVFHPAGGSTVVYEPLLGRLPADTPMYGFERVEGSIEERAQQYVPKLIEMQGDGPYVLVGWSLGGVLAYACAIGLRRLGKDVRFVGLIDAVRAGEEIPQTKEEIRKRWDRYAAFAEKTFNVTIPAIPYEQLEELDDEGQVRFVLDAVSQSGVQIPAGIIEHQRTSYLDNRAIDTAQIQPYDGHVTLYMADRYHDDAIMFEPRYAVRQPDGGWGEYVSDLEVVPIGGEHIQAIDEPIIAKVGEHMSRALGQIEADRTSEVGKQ
For experiment [4], the target named is ClpP1P2 (Mycobacterium tuberculosis (strain ATCC 25618 / H37Rv), UniProt P9WPC3+P9WPC5). The experiment can be described thus: in vitro assay to detect presence of AMC directly proportional to the activity of ClpP1P2. GHDDI collaboration. Format: functional.
ClpP1P2, sequence (P9WPC5 whole entry): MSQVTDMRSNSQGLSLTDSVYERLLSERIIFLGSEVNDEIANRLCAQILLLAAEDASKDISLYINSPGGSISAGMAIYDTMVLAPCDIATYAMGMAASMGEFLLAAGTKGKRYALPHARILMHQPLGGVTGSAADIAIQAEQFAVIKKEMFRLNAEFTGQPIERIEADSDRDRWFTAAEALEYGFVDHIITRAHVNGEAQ
ClpP1P2, sequence (P9WPC3 whole entry): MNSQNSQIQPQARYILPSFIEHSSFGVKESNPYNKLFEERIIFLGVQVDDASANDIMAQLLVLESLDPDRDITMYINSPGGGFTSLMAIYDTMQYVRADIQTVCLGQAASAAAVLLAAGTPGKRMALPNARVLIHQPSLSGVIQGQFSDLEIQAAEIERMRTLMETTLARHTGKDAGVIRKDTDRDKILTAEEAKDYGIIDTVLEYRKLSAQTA
Experiment [5] concerns Plasmodium falciparum. Kind of experiment: Calibr Malaria Delayed Death Assay SOP. Format: functional, organism-based. The settings on record: for IC50: Plasmodium falciparum.

Each structure is given as a SMILES string. Where “and” joins values, the source holds several entries; their conditions need not be identical. Identical values can stand only once.

Regarding `COc1ccc(CC(C)Nc2cccc(SC)c2)cc1` (centres undefined), the IC50 in experiment [1] was more than 50.1 µM; in experiment [2], 45.4 µM; in experiment [3] it was 24.5 µM and 22 µM.

Regarding `CCC1(CC)Cc2ccccc2-c2nc(NCCCO)[nH]c(=O)c21`, the IC50 in experiment [4] was more than 100 µM; in experiment [3] it was 21.9 µM and 23.7 µM.

Consider `O=c1[nH]c(NCCCO)nc2c1C1(CCCC1)Cc1ccccc1-2`, for which the IC50 was more than 100 µM in experiment [4]; 24.5 µM and 29.7 µM in experiment [3].

As to `Cc1nc2c(Nc3cccc(C#N)c3)nc(N)nc2n1C`, the IC50 in experiment [1] was 3.75 µM; in experiment [2] it was 4.14 µM; in experiment [3], more than 100 µM.

For the compound `O=C(O)c1cn(-c2ccccn2)c(=O)c2ccccc12`, the IC50 was more than 100 µM in experiment [4]; 8.93 µM and 20.5 µM in experiment [3].

On to `CN(C)S(=O)(=O)c1ccc(-c2nc(C#N)c(NC3CC3)o2)o1`, for which the IC50 in experiment [4] is more than 100 µM; in experiment [3] it was 12.2 µM and 13.6 µM.

For `CNC(=O)c1cc2c(nc1NCC(C)C)CCN(S(C)(=O)=O)CC2`, the IC50 is more than 100 µM in experiment [4]; > 100 µM and 16.4 µM in experiment [3].

Turning to `CNC(=O)c1cc2c(nc1NC(C)C)CCNCC2`, the IC50 in experiment [4] is more than 100 µM; in experiment [3], 60.3 µM and 25 µM.

With `CNC(=O)c1cc2c(nc1NCC1CC1)CCNCC2`, the IC50 was more than 100 µM in experiment [4]; 72 µM and 24.7 µM in experiment [3].

For the compound `CNC(=O)N1CCc2cc(C(=O)NCC3CC3)c(NC(C)C)nc2CC1`, the IC50 in experiment [4] was more than 100 µM; in experiment [3], 10.7 µM and 18.7 µM.

Take `COc1ccccc1-c1ccnc2nc(N3CCCCC3)[nH]c(=O)c12`: the IC50 was more than 100 µM in experiment [4]; 10.9 µM and 13.9 µM in experiment [3].

Take `CCOc1cc(C(=O)n2cc(C)cn2)cc(OCC)c1OCC`: the IC50 is 29.7 µM in experiment [1]; more than 50.1 µM in experiment [2]; 19.9 µM and 11.2 µM in experiment [3].

What is called pIC50 is the IC50 on a negative log10 scale, so that one unit is a factor of ten. In experiment [5], `Cc1nn(C)cc1C1=NS(=O)(=O)N(C)C(C(=O)Nc2ccc(Br)cc2)=C1` gave a pIC50 of 6.699 and an IC50 of 0.238 µM. For the same compound, the IC50 in experiment [3] was 28.6 µM and 36.6 µM.

`Cc1cc(C)c2cc(CNC(C)C)c3nn(C)c(=O)n3c2c1`: the IC50 in experiment [4] is more than 100 µM; in experiment [3] it was 17 µM and 18.4 µM.

Consider `CC(=O)N1CCC(c2cc(C(F)(F)F)nc3nccn23)CC1`, for which the IC50 in experiment [4] is more than 100 µM; in experiment [3] it was 16.7 µM and 13.5 µM.

Take `COC(=O)CNC(=O)c1nc(-c2ccccc2OC)c2cnccn12`: the IC50 in experiment [4] was more than 100 µM; in experiment [3], 79.6 µM and > 100 µM.

`CS(=O)(=O)c1ccc(-c2nc(C(=O)N3CCCC3)n3ccccc23)cc1`: the IC50 in experiment [4] is more than 100 µM; in experiment [3] it was 12.3 µM and 12.9 µM.

Regarding `Cc1csc(CNc2cnc3c(c2)c(C)nn3C)n1`, the IC50 in experiment [4] is more than 100 µM; in experiment [3] it was 7.6 µM and 15.2 µM.

Turning to `CN1CCC(NC(=O)c2cc(F)cc(Cl)c2O)C1=O` (centres undefined), the IC50 in experiment [4] is more than 100 µM; in experiment [3], 40.1 µM and 21.4 µM.

On to `Cc1nc(C(=O)N(C)CC(F)(F)C(F)(F)F)c2ccccn12`, for which the IC50 in experiment [4] was more than 100 µM; in experiment [3], > 57.5 µM and 27.2 µM.

For `CCOCCOCc1cccc(CNc2cncc(-n3cccn3)n2)c1`, the IC50 in experiment [4] was more than 100 µM; in experiment [3], 29.9 µM and 19 µM.

Consider `CCOC(=O)N1CCN(C(=O)C2CC(=O)N(c3ccccc3Br)C2)CC1` (centres undefined), for which the IC50 is 39.8 µM in experiment [1]; 9.89 µM in experiment [2]; 19.4 µM and 22.4 µM in experiment [3].

As for `CC(CN1CCCC1=O)NC(=O)c1ccc(-c2ccco2)[nH]c1=O` (centres undefined), the IC50 in experiment [4] was more than 100 µM; in experiment [3], 7.52 µM and 13.7 µM.

As for `CN(C)C(=O)c1cnc(-c2ccc3c(c2)OCO3)s1`, the IC50 is more than 100 µM in experiment [4]; 11.1 µM and 8.56 µM in experiment [3].

Consider `CC(C)N(CC(N)=O)C(=O)c1cnc(-c2ccc3c(c2)OCO3)s1`, for which the IC50 is more than 100 µM in experiment [4]; 11.1 µM and 12.4 µM in experiment [3].

In the case of `N#Cc1nccnc1N1CCC(CSc2ccccc2)C1` (centres undefined), the IC50 is 18.9 µM in experiment [1]; 4.96 µM in experiment [2]; 18.6 µM and 20.2 µM in experiment [3].

As for `Cn1cnc(-c2nc(C(=O)NC3CC3)c3ccccn23)c1`, the IC50 in experiment [4] is more than 100 µM; in experiment [3], 73.2 µM and 16.1 µM.

For `Cn1cnc(-c2nc(C(=O)NCCN3CCOCC3)c3ccccn23)c1`, the IC50 is more than 100 µM in experiment [4]; 15.6 µM and 34.1 µM in experiment [3].

Consider `COCc1noc(-c2ccc(N(C)Cc3ccc(C)o3)nc2)n1`, for which the values for the IC50 in experiment [2] and in experiment [3] were 18.1 µM and more than 100 µM, respectively.

As to `CS(=O)(=O)c1ccc(-c2cc(C3CC3)c(C#N)c(N)n2)cc1`, the IC50 was more than 100 µM in experiment [4]; 10.4 µM and 11.5 µM in experiment [3].

Take `Cn1c(Cn2ncc(N3CCCCC3)cc2=O)nc2ccccc21`: the IC50 in experiment [4] and in experiment [3] was more than 100 µM each time.

Consider `COc1cnc(N2CCN(C)CC2)nc1-c1ccnn1C`, for which the IC50 is more than 100 µM in experiment [4]; 23.7 µM and 24.9 µM in experiment [3].

Turning to `COc1ccc(CCC(C)Nc2cccc(SC)c2)cc1` (centres undefined), the IC50 was 14.1 µM in experiment [1]; 14.3 µM in experiment [2]; 23 µM and 23.6 µM in experiment [3].

Consider `CCc1[nH]c2c(CNc3nc(C)cc(NC)n3)cc(C)cc2c1C`, for which the pIC50 in experiment [5] is 6.194. Moreover, the IC50 in experiment [5] is 0.657 µM; in experiment [1], 23.7 µM; in experiment [2] it was 30.7 µM; in experiment [3], more than 100 µM.

Turning to `CCn1cc(-c2cc(-c3ccn(C)c3)nc(N)c2C#N)cc1C#N`, the IC50 in experiment [4] is more than 100 µM; in experiment [3], 51.8 µM and 43.6 µM.

For `O=c1[nH]c(NC2CCCC2)nc2nccc(-c3ccco3)c12`, the IC50 in experiment [4] and in experiment [3] was more than 100 µM throughout.

For `COCC(=O)N1CCC(c2cc(C(F)(F)F)n3ccnc3n2)CC1`, the IC50 in experiment [4] was more than 100 µM; in experiment [3], 28.4 µM and 36.3 µM.

For the compound `CNC(=O)COc1ccc(CNc2cncc(-n3cccn3)n2)cc1`, the IC50 in experiment [4] is more than 100 µM; in experiment [3], 11.8 µM and > 100 µM.

In the case of `CCc1nc(C2CCCN2C(=O)c2nc(C)n3ccccc23)no1` (centres undefined), the IC50 in experiment [4] was more than 100 µM; in experiment [3] it was 8.2 µM and 6.66 µM.

As to `CC(O)CN1CCC(CNCc2c[nH]nc2C(C)(C)C)CC1` (centres undefined), the IC50 in experiment [1] is 45.6 µM; in experiment [2] it was 35.4 µM; in experiment [3], more than 100 µM.

As for `CCc1n[nH]c(C2CN(C(=O)c3nc(C)n4ccccc34)CCO2)n1` (centres undefined), the IC50 in experiment [4] is more than 100 µM; in experiment [3], 18.2 µM and 11.7 µM.

Turning to `CC(C)Nc1nc2c(cc1C(=O)NCC1CC1)CCN(S(C)(=O)=O)CC2`, the IC50 in experiment [4] was more than 100 µM; in experiment [3], 20.5 µM and 23.8 µM.

Take `COc1cccc(CN2CCC3(COCc4cnc(N(C)C)nc43)C2)c1` (centres undefined): the IC50 is more than 50.1 µM in experiment [1], more than 50.1 µM in experiment [2] and more than 100 µM in experiment [3].

As for `O=c1ccc2c(n1CC1CCOCC1)CCN(Cc1ccoc1)CC2`, the IC50 in experiment [4] and in experiment [3] was more than 100 µM in each case.

With `CC(C)(CO)CNC(=O)c1cc(-c2cc[nH]n2)n2ccccc12`, the IC50 in experiment [4] was more than 100 µM; in experiment [3], 22.5 µM and 17.5 µM.

As to `CNC(=O)c1cc2c(nc1NCC(C)C)CCN(c1ccncn1)CC2`, the IC50 was more than 100 µM in experiment [4]; 25.7 µM and 29.5 µM in experiment [3].

As to `CNC(=O)c1cc2c(nc1NCC1CC1)CCN(S(C)(=O)=O)CC2`, the IC50 was more than 100 µM in experiment [4]; 14.8 µM and 22.2 µM in experiment [3].

Consider `CNC(=O)c1cc2c(nc1NCC(C)C)CCN(CC1CC1)CC2`, for which the IC50 is more than 100 µM in experiment [4]; 21 µM and 28.8 µM in experiment [3].

Consider `CC(C)Nc1nc2c(cc1C(=O)NCC1CC1)CCN(CC1CC1)CC2`, for which the IC50 in experiment [4] is more than 100 µM; in experiment [3], 14.7 µM and 35.6 µM.

Turning to `CC(C)Nc1nc2c(cc1C(=O)NCC1CC1)CCN(C)CC2`, the IC50 was more than 100 µM in experiment [4]; 30.6 µM and 15.6 µM in experiment [3].

For the compound `CC(C)Nc1nc2c(cc1C(=O)NCC1CC1)CCNCC2`, the IC50 in experiment [4] was more than 100 µM; in experiment [3], 19.7 µM and 19.3 µM.

The values above are taken from ChEMBL document CHEMBL3988442, “University of Dundee, Small-Polar-MMV Screening Library” (2021).
